The results in this text go back to PubChem BioAssay AID1259407 (Chemical Carcinogenesis Research Information System (CCRIS), 2018).

In the series the test system is CCRIS mutagenicity, Ames/micronucleus/aberration tests. In words: CCRIS mutagenicity studies.
Where [1] appears, read: Test System: AMES SALMONELLA TYPHIMURIUM, Strain/Indicator: TA100, Metabolic Activation: RAT, LIVER, S-9, AROCLOR 1254, Method: PREINCUBATION
The mark [2] stands for this setting: Test System: AMES SALMONELLA TYPHIMURIUM, Strain/Indicator: TA100, Metabolic Activation: NONE, Method: PREINCUBATION
Setting [3] is: Test System: AMES SALMONELLA TYPHIMURIUM, Strain/Indicator: TA98, Metabolic Activation: NONE, Method: STANDARD PLATE.
[4] abbreviates: Test System: AMES SALMONELLA TYPHIMURIUM, Strain/Indicator: TA100, Metabolic Activation: NONE, Method: STANDARD PLATE.
[5] abbreviates: Test System: AMES SALMONELLA TYPHIMURIUM, Strain/Indicator: TA1537, Metabolic Activation: NONE, Method: STANDARD PLATE.

The source made the active and inactive calls. No rule for the calls is given here.

Turning to `Fc1cnc2ccccc2c1`, the mutagenic call reads like this: (End Point: In vitro Chromosomal aberrations, Test System: Chinese hamster lung fibroblast cells (CHL/IU), Metabolic Activation: Rat, liver, S-9) “active; positive (information derived from a figure)”; (End Point: In vitro Micronucleus, Test System: Chinese hamster lung fibroblast cells (CHL/IU), Metabolic Activation: Rat, liver, S-9) “active; positive (information derived from a figure)”; (Test System: AMES SALMONELLA TYPHIMURIUM, Strain/Indicator: TA100, Metabolic Activation: RAT LIVER S-9, PHENOBARBITAL AND 5,6-BENZOFLAVONE, Method: PREINCUBATION) “inactive; negative”; under setting [1], “inactive; negative”; (Test System: AMES SALMONELLA TYPHIMURIUM, Strain/Indicator: TA100, Metabolic Activation: RAT, LIVER, S-9, PHENOBARBITAL AND 5,6-BENZOFLAVONE, Method: PREINCUBATION) “inactive; negative”; (Test System: AMES SALMONELLA TYPHIMURIUM, Strain/Indicator: TA100, Metabolic Activation: RAT, LIVER, S-9, PHENOBARBITAL AND 5,6-NAPHTHOFLAVONE, Method: PREINCUBATION) “inactive; negative”. Moreover, the mutagenic call runs as follows: (Test System: AMES SALMONELLA, Strain/Indicator: TA100, Metabolic Activation: RAT, LIVER, S-9, PHENOBARBITAL AND 5,6-BENZOFLAVONE, Method: PREINCUBATION) “inactive; negative”; (Test System: UDS RODENT HEPATOCYTES, Strain/Indicator: THY INCORP (NON-S-PHASE), Metabolic Activation: NONE, Method: AUTORADIOGRAPHY) “inactive; negative”.
For the compound `CC12OOC1(C)c1c(ccc3ccccc13)O2` (centres undefined), under setting [2], the mutagenic call is “inactive; negative”.
With `c1cc2c3c(cccc3c1)C1NC21` (centres undefined), the mutagenic call reads like this: under setting [3], “active; positive”; under setting [4], “active; positive”; under setting [5], “active; positive”.
As to `O=c1[nH]c(=O)n([C@H]2C[C@H](O)[C@@H](CO)O2)cc1CCCl`, the mutagenic call is, setting by setting: (End Point: IN VITRO MICRONUCLEUS, Test System: V79 CHINESE HAMSTER CELLS, Metabolic Activation: NONE) “inactive; negative”; (End Point: IN VITRO MICRONUCLEUS, Test System: V79 CHINESE HAMSTER CELLS, Metabolic Activation: RAT, LIVER, S-9, AROCLOR 1254) “inactive; negative”; (End Point: IN VIVO MICRONUCLEUS, Test System: BONE MARROW POLYCHROMATIC ERYTHROCYTES, Species: MOUSE, Strain/Sex: CD-1/MALE, FEMALE, Route: GAVAGE) “inactive; negative”; (Test System: AMES SALMONELLA TYPHIMURIUM, Strain/Indicator: TA97, Metabolic Activation: NONE, Method: PREINCUBATION) “inactive; negative”; (Test System: AMES SALMONELLA TYPHIMURIUM, Strain/Indicator: TA97, Metabolic Activation: RAT, LIVER, S-9, AROCLOR 1254, Method: PREINCUBATION) “inactive; negative”; (Test System: AMES SALMONELLA TYPHIMURIUM, Strain/Indicator: TA98, Metabolic Activation: NONE, Method: PREINCUBATION) “inactive; negative”. The mutagenic call is “inactive; negative” under setting [3]; “inactive; negative” (Test System: AMES SALMONELLA TYPHIMURIUM, Strain/Indicator: TA98, Metabolic Activation: RAT, LIVER, S-9, AROCLOR 1254, Method: PREINCUBATION); “inactive; negative” (Test System: AMES SALMONELLA TYPHIMURIUM, Strain/Indicator: TA98, Metabolic Activation: RAT, LIVER, S-9, AROCLOR 1254, Method: STANDARD PLATE); “inactive; negative” under setting [2]; “inactive; negative” under setting [4]; “inactive; negative” under setting [1]. In addition, the mutagenic call reads like this: (Test System: AMES SALMONELLA TYPHIMURIUM, Strain/Indicator: TA100, Metabolic Activation: RAT, LIVER, S-9, AROCLOR 1254, Method: STANDARD PLATE) “inactive; negative”; (Test System: AMES SALMONELLA TYPHIMURIUM, Strain/Indicator: TA102, Metabolic Activation: NONE, Method: PREINCUBATION) “inactive; negative”; (Test System: AMES SALMONELLA TYPHIMURIUM, Strain/Indicator: TA102, Metabolic Activation: NONE, Method: STANDARD PLATE) “active; positive”; (Test System: AMES SALMONELLA TYPHIMURIUM, Strain/Indicator: TA102, Metabolic Activation: RAT, LIVER, S-9, AROCLOR 1254, Method: PREINCUBATION) “inactive; negative”; (Test System: AMES SALMONELLA TYPHIMURIUM, Strain/Indicator: TA102, Metabolic Activation: RAT, LIVER, S-9, AROCLOR 1254, Method: STANDARD PLATE) “active; positive”; (Test System: AMES SALMONELLA TYPHIMURIUM, Strain/Indicator: TA104, Metabolic Activation: NONE, Method: PREINCUBATION) “inactive; negative”. Further, the mutagenic call is “inactive; negative” (Test System: AMES SALMONELLA TYPHIMURIUM, Strain/Indicator: TA104, Metabolic Activation: RAT, LIVER, S-9, AROCLOR 1254, Method: PREINCUBATION); “inactive; negative” (Test System: AMES SALMONELLA TYPHIMURIUM, Strain/Indicator: TA1535, Metabolic Activation: NONE, Method: PREINCUBATION); “active; positive” (Test System: AMES SALMONELLA TYPHIMURIUM, Strain/Indicator: TA1535, Metabolic Activation: NONE, Method: STANDARD PLATE); “inactive; negative” (Test System: AMES SALMONELLA TYPHIMURIUM, Strain/Indicator: TA1535, Metabolic Activation: RAT, LIVER, S-9, AROCLOR 1254, Method: PREINCUBATION); “active; positive” (Test System: AMES SALMONELLA TYPHIMURIUM, Strain/Indicator: TA1535, Metabolic Activation: RAT, LIVER, S-9, AROCLOR 1254, Method: STANDARD PLATE); “inactive; negative” (Test System: AMES SALMONELLA TYPHIMURIUM, Strain/Indicator: TA1537, Metabolic Activation: NONE, Method: PREINCUBATION). Moreover, the mutagenic call is, setting by setting: under setting [5], “inactive; negative”; (Test System: AMES SALMONELLA TYPHIMURIUM, Strain/Indicator: TA1537, Metabolic Activation: RAT, LIVER, S-9, AROCLOR 1254, Method: PREINCUBATION) “inactive; negative”; (Test System: AMES SALMONELLA TYPHIMURIUM, Strain/Indicator: TA1537, Metabolic Activation: RAT, LIVER, S-9, AROCLOR 1254, Method: STANDARD PLATE) “inactive; negative”; (Test System: AMES SALMONELLA TYPHIMURIUM, Strain/Indicator: TA1538, Metabolic Activation: NONE, Method: PREINCUBATION) “inactive; negative”; (Test System: AMES SALMONELLA TYPHIMURIUM, Strain/Indicator: TA1538, Metabolic Activation: NONE, Method: STANDARD PLATE) “inactive; negative”; (Test System: AMES SALMONELLA TYPHIMURIUM, Strain/Indicator: TA1538, Metabolic Activation: RAT, LIVER, S-9, AROCLOR 1254, Method: PREINCUBATION) “inactive; negative”. Besides, the mutagenic call runs as follows: (Test System: AMES SALMONELLA TYPHIMURIUM, Strain/Indicator: TA1538, Metabolic Activation: RAT, LIVER, S-9, AROCLOR 1254, Method: STANDARD PLATE) “inactive; negative”; (Test System: CHINESE HAMSTER V-79, Strain/Indicator: V-79/8-AZAGUANINE, Metabolic Activation: NONE) “active; positive”.
